Columns and labels:
Test in all cases: relative viability (nuclei count vs DMSO), 5 days (fraction); higher = more cells survive
NCI-H727 = system: NCI-H727
Outline: (§1)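 Relative viability was taken as the ratio of nuclei in treated wells to nuclei in vehicle wells. Lung cancer cell lines in 1536-well plates received compounds by pin tool one day after seeding, either one drug alone or a fixed anchor-drug dose plus five library-drug doses (not always all listed) in √10 steps. Nuclei were counted on 4× images after 5 days of treatment, and values are medians of duplicate plates.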

EMC-BAC-2 = system: EMC-BAC-2
Outline: as §1

NCI-H1650 = system: NCI-H1650
Outline: as §1

NCI-H1734 = system: NCI-H1734
Outline: as §1

EKVX = system: EKVX
Outline: as §1

COR-L 105 = system: COR-L 105
Outline: as §1

NCI-H2126 = system: NCI-H2126
Outline: as §1

LK-2 = system: LK-2
Outline: as §1

EPLC-272H = system: EPLC-272H
Outline: as §1

NCI-H1944 = system: NCI-H1944
Outline: as §1

NCI-H1792 = system: NCI-H1792
Outline: as §1

SW 1573 = system: SW 1573
Outline: as §1

BEN = system: BEN
Outline: as §1

HCC-78 = system: HCC-78
Outline: as §1

HCC-827 = system: HCC-827
Outline: as §1

RERF-LC-KJ = system: RERF-LC-KJ
Outline: as §1

NCI-H2087 = system: NCI-H2087
Outline: as §1

LCLC-97TM1 = system: LCLC-97TM1
Outline: as §1

LOU-NH91 = system: LOU-NH91
Outline: as §1

LU99A = system: LU99A
Outline: as §1

SK-MES-1 = system: SK-MES-1
Outline: as §1

NCI-H358 = system: NCI-H358
Outline: as §1

ChaGo-K-1 = system: ChaGo-K-1
Outline: as §1

## Cc1cnc(-c2cnc(NCCNc3ccc(C#N)cn3)nc2-c2ccc(Cl)cc2Cl)[nH]1 + Cc1nc(Nc2ncc(C(=O)Nc3c(C)cccc3Cl)s2)cc(N2CCN(CCO)CC2)n1 [Dasatinib] (partner 0.075 µM)
NCI-H727; first compound 0.08 µM
  relative viability: 0.452
NCI-H727; first compound 0.253 µM
  relative viability: 0.358
NCI-H727; first compound 0.8 µM
  relative viability: 0.339
NCI-H727; first compound 2.53 µM
  relative viability: 0.54
EMC-BAC-2; first compound 0.08 µM
  relative viability: 0.409
EMC-BAC-2; first compound 0.253 µM
  relative viability: 0.336
EMC-BAC-2; first compound 0.8 µM
  relative viability: 0.317
EMC-BAC-2; first compound 2.53 µM
  relative viability: 0.332
NCI-H1650; first compound 0.08 µM
  relative viability: 0.31
NCI-H1650; first compound 0.253 µM
  relative viability: 0.345
NCI-H1650; first compound 0.8 µM
  relative viability: 0.295
NCI-H1650; first compound 2.53 µM
  relative viability: 0.312
NCI-H1734; first compound 0.08 µM
  relative viability: 0.461
NCI-H1734; first compound 0.253 µM
  relative viability: 0.417
NCI-H1734; first compound 0.8 µM
  relative viability: 0.467
NCI-H1734; first compound 2.53 µM
  relative viability: 0.415
EKVX; first compound 0.08 µM
  relative viability: 0.608
EKVX; first compound 0.253 µM
  relative viability: 0.518
EKVX; first compound 0.8 µM
  relative viability: 0.494
EKVX; first compound 2.53 µM
  relative viability: 0.493
COR-L 105; first compound 0.08 µM
  relative viability: 0.354
COR-L 105; first compound 0.253 µM
  relative viability: 0.344
COR-L 105; first compound 0.8 µM
  relative viability: 0.282
COR-L 105; first compound 2.53 µM
  relative viability: 0.208
NCI-H2126; first compound 0.08 µM
  relative viability: 0.686
NCI-H2126; first compound 0.253 µM
  relative viability: 0.54
NCI-H2126; first compound 0.8 µM
  relative viability: 0.604
NCI-H2126; first compound 2.53 µM
  relative viability: 0.529
LK-2; first compound 0.08 µM
  relative viability: 0.387
LK-2; first compound 0.253 µM
  relative viability: 0.302
LK-2; first compound 0.8 µM
  relative viability: 0.39
EPLC-272H; first compound 0.253 µM
  relative viability: 0.374
EPLC-272H; first compound 0.8 µM
  relative viability: 0.409
EPLC-272H; first compound 2.53 µM
  relative viability: 0.397
NCI-H1944; first compound 0.08 µM
  relative viability: 0.24
NCI-H1944; first compound 0.8 µM
  relative viability: 0.251
NCI-H1944; first compound 2.53 µM
  relative viability: 0.316
NCI-H1792; first compound 0.08 µM
  relative viability: 0.998
NCI-H1792; first compound 0.253 µM
  relative viability: 0.777
NCI-H1792; first compound 0.8 µM
  relative viability: 0.772
NCI-H1792; first compound 2.53 µM
  relative viability: 0.762
SW 1573; first compound 0.08 µM
  relative viability: 0.687
SW 1573; first compound 0.253 µM
  relative viability: 0.395
SW 1573; first compound 0.8 µM
  relative viability: 0.493
SW 1573; first compound 2.53 µM
  relative viability: 0.168
BEN; first compound 0.08 µM
  relative viability: 0.332
BEN; first compound 0.253 µM
  relative viability: 0.364
BEN; first compound 0.8 µM
  relative viability: 0.291
BEN; first compound 2.53 µM
  relative viability: 0.351
HCC-78; first compound 0.08 µM
  relative viability: 0.434
HCC-78; first compound 0.253 µM
  relative viability: 0.364
HCC-78; first compound 0.8 µM
  relative viability: 0.41
HCC-78; first compound 2.53 µM
  relative viability: 0.371
HCC-827; first compound 0.08 µM
  relative viability: 0.371
HCC-827; first compound 0.8 µM
  relative viability: 0.291
HCC-827; first compound 2.53 µM
  relative viability: 0.318
RERF-LC-KJ; first compound 0.08 µM
  relative viability: 0.9
RERF-LC-KJ; first compound 0.253 µM
  relative viability: 0.765
RERF-LC-KJ; first compound 0.8 µM
  relative viability: 0.796
RERF-LC-KJ; first compound 2.53 µM
  relative viability: 0.752
NCI-H2087; first compound 0.08 µM
  relative viability: 0.837
NCI-H2087; first compound 0.253 µM
  relative viability: 0.698
NCI-H2087; first compound 0.8 µM
  relative viability: 0.919
NCI-H2087; first compound 2.53 µM
  relative viability: 0.614
LCLC-97TM1; first compound 0.08 µM
  relative viability: 0.796
LCLC-97TM1; first compound 0.8 µM
  relative viability: 0.887
LCLC-97TM1; first compound 2.53 µM
  relative viability: 0.741
LOU-NH91; first compound 0.08 µM
  relative viability: 0.562
LOU-NH91; first compound 0.253 µM
  relative viability: 0.558
LOU-NH91; first compound 0.8 µM
  relative viability: 0.55
LOU-NH91; first compound 2.53 µM
  relative viability: 0.514
LU99A; first compound 0.08 µM
  relative viability: 0.507
LU99A; first compound 0.253 µM
  relative viability: 0.487
LU99A; first compound 0.8 µM
  relative viability: 0.528
LU99A; first compound 2.53 µM
  relative viability: 0.643
SK-MES-1; first compound 0.08 µM
  relative viability: 0.332
SK-MES-1; first compound 0.253 µM
  relative viability: 0.425
SK-MES-1; first compound 0.8 µM
  relative viability: 0.401
SK-MES-1; first compound 2.53 µM
  relative viability: 0.247
NCI-H358; first compound 0.08 µM
  relative viability: 0.157
NCI-H358; first compound 0.253 µM
  relative viability: 0.17
NCI-H358; first compound 0.8 µM
  relative viability: 0.207
NCI-H358; first compound 2.53 µM
  relative viability: 0.189
ChaGo-K-1; first compound 0.08 µM
  relative viability: 0.607
ChaGo-K-1; first compound 0.253 µM
  relative viability: 0.462
ChaGo-K-1; first compound 0.8 µM
  relative viability: 0.512
ChaGo-K-1; first compound 2.53 µM
  relative viability: 0.515

Reference: the supplement of paper PMC10307832
